Assay results: ChEMBL document CHEMBL3877316, “Synthesis of pharmacologically important naphthoquinones and anticancer activity of 2-benzyllawsone through DNA topoisomerase-II inhibition” (Bioorg Med Chem, 2017)

Legend:
[1] = Antiproliferative activity against HEK293 cells after 48 hrs by SRB assay; type: cell-based; details: Homo sapiens, HEK293, 48 h
FaDu = assay: Inhibition of topoisomerase-2 in human FADU cells at 2 times antiproliferative IC50 after 24 hrs by ELISA relative to control; type: cell-based
[2] = Antiproliferative activity against human DU145 cells after 48 hrs by SRB assay; type: functional, cell-based; details: DU-145, 48 h
[3] = Antiproliferative activity against human FADU cells after 48 hrs by SRB assay; type: functional, cell-based
[4] = Antiproliferative activity against human MCF7 cells after 48 hrs by SRB assay; type: functional, cell-based; details: MCF7, 48 h
[5] = Antiproliferative activity against human DLD1 cells after 48 hrs by SRB assay; type: functional, cell-based; details: DLD-1, 48 h
[6] = Antiproliferative activity against human A549 cells after 48 hrs by SRB assay; type: functional, cell-based; details: A549, 48 h

Row | SMILES | IC50 [1] [µM] | inhibition (FaDu) [%] | IC50 [2] [µM] | IC50 [3] [µM] | IC50 [4] [µM] | IC50 [5] [µM] | IC50 [6] [µM]
1 | CC1(C)CCC2=C(O1)c1ccccc1C(=O)C2=O [LAPACHONE] | 25.3 | 53.9 | – | – | – | – | –
2 | COc1cc(COC2=CC(=O)c3ccccc3C2=O)cc(OC)c1OC | > 150 | 14.7 | 25.2 | 16.5 | > 30 | > 30 | 18.9
3 | CCOC(=O)COC1=C(CC(=O)OCC)C(=O)c2ccccc2C1=O | > 150 | 21.4 | > 30 | 21.8 | > 30 | > 30 | 21.1
4 | COc1cc([C@@H]2c3cc4c(cc3[C@@H](O[C@@H]3O[C@@H]5CO[C@@H](C)O[C@H]5[C@H](O)[C@H]3O)[C@H]3COC(=O)[C@H]23)OCO4)cc(OC)c1O [ETOPOSIDE] | 7.51 | 51.7 | 10.6 | 16 | > 30 | 8.11 | > 30
5 | CCOC(=O)COC1=CC(=O)c2ccccc2C1=O | > 150 | 16.8 | > 30 | 19.7 | > 30 | > 30 | 15.5
